In ChEMBL document CHEMBL4308841, “Synthesis, in vitro antiproliferative activity, and kinase inhibitory effects of pyrazole-containing diarylureas and diarylamides” (Eur J Med Chem, 2018):

Assays:
HOP-92 = assay: Growth inhibition of human HOP92 cells assessed as cell growth at 10 uM incubated for 48 hrs by sulforhodamine B assay relative to control; type: functional; details: HOP-92, 48 h, read-out: Activity
HCT-15 = assay: Growth inhibition of human HCT15 cells incubated for 48 hrs by sulforhodamine B assay; type: functional, cell-based; details: HCT-15, 48 h
K562 = assay: Growth inhibition of human K562 cells assessed as cell growth at 1 uM incubated for 48 hrs by sulforhodamine B assay relative to control; type: functional; details: K562, 48 h, read-out: Activity
IGROV-1 = assay: Growth inhibition of human IGROV1 cells assessed as cell growth at 100 uM incubated for 48 hrs by sulforhodamine B assay relative to control; type: functional; details: IGROV-1, 48 h, read-out: Activity
SNB-19 = assay: Growth inhibition of human SNB19 cells assessed as cell growth at 100 uM incubated for 48 hrs by sulforhodamine B assay relative to control; type: functional; details: SNB-19, 48 h, read-out: Activity
NCI-H522 = assay: Growth inhibition of human NCI-H522 cells assessed as cell growth at 100 uM incubated for 48 hrs by sulforhodamine B assay relative to control; type: functional; details: NCI-H522, 48 h, read-out: Activity
U-251 = assay: Growth inhibition of human U251 cells assessed as cell growth at 100 uM incubated for 48 hrs by sulforhodamine B assay relative to control; type: functional; details: U-251, 48 h, read-out: Activity
SF-268 = assay: Growth inhibition of human SF268 cells assessed as cell growth at 0.1 uM incubated for 48 hrs by sulforhodamine B assay relative to control; type: functional; details: SF-268, 48 h, read-out: Activity
SF-539 = assay: Growth inhibition of human SF539 cells assessed as cell growth at 1 uM incubated for 48 hrs by sulforhodamine B assay relative to control; type: functional; details: SF-539, 48 h, read-out: Activity
MDA-MB-231 = assay: Growth inhibition of human MDA-MB-231 cells assessed as cell growth at 100 uM incubated for 48 hrs by sulforhodamine B assay relative to control; type: functional; details: MDA-MB-231, 48 h, read-out: Activity
SK-MEL-5 = assay: Growth inhibition of human SK-MEL-5 cells assessed as cell growth at 0.01 uM incubated for 48 hrs by sulforhodamine B assay relative to control; type: functional; details: SK-MEL-5, 48 h, read-out: Activity
CAKI-1 = assay: Growth inhibition of human Caki1 cells assessed as cell growth at 0.01 uM incubated for 48 hrs by sulforhodamine B assay relative to control; type: functional; details: CAKI-1, 48 h, read-out: Activity
T47D = assay: Growth inhibition of human T47D cells assessed as cell growth at 1 uM incubated for 48 hrs by sulforhodamine B assay relative to control; type: functional; details: read-out: Activity
M14 = assay: Growth inhibition of human M14 cells assessed as cell growth at 100 uM incubated for 48 hrs by sulforhodamine B assay relative to control; type: functional; details: M14, 48 h, read-out: Activity
MCF7 = assay: Growth inhibition of human MCF7 cells assessed as cell growth at 100 uM incubated for 48 hrs by sulforhodamine B assay relative to control; type: functional; details: MCF7, 48 h, read-out: Activity
[1] = read-out: LC50 (the source's name)
[2] = read-out: pLC50 (the source's name) (converted)

Row | SMILES | growth at 10 µM (HOP-92) [%] | GI50 (HCT-15; read-out: GI50) [µM] | CC50 (HCT-15; [1]) [µM] | TGI (HCT-15; read-out: TGI) [µM] | GI50 (HCT-15; read-out: pGI50 (converted)) [µM] | CC50 (HCT-15; [2]) [µM] | TGI (HCT-15; read-out: pTGI (converted)) [µM] | growth at 1 µM (K562) [%] | growth at 100 µM (IGROV-1) [%] | growth at 100 µM (SNB-19) [%] | growth at 100 µM (NCI-H522) [%] | growth at 100 µM (U-251) [%] | growth at 0.1 µM (SF-268) [%] | growth at 1 µM (SF-539) [%] | growth at 100 µM (MDA-MB-231) [%] | growth at 0.01 µM (SK-MEL-5) [%] | growth at 0.01 µM (CAKI-1) [%] | growth at 1 µM (T47D) [%] | growth at 100 µM (M14) [%] | growth at 100 µM (MCF7) [%]
1 | COc1cc(Cl)cc(-c2nn(-c3cccc(NC(=O)c4cc(C(F)(F)F)cc(C(F)(F)F)c4)c3)cc2-c2ccncc2)c1 | 46.8 |  |  |  |  |  |  |  |  |  |  |  |  |  |  |  |  |  |  | 
2 | O=C(Nc1cccc(-n2cc(-c3ccncc3)c(-c3cc(O)cc(Cl)c3)n2)c1)c1cc(C(F)(F)F)cc(C(F)(F)F)c1 |  | 2.5 | > 100 | 14.7 | 2.57 | > 100 | 14.8 | 85 | 22 | 34 | -18 | -28 | 95 | 91 | -84 | 97 | 97 | 57 | 5 | 
3 | COc1cc(Cl)cc(-c2nn(-c3cccc(NC(=O)c4cccc(C(F)(F)F)c4)c3)cc2-c2ccncc2)c1 |  | 3.36 | > 100 | > 100 | 3.31 | > 100 | > 100 | 90 | 70 | 72 | 18 | 41 | 100 | 52 | -14 | 97 | 95 | 92 | 27 | 38
4 | O=C(Nc1cccc(-n2cc(-c3ccncc3)c(-c3cc(O)cc(Cl)c3)n2)c1)Nc1ccc(Cl)c(Cl)c1 | -30.5 | 2.1 | > 100 | 80.4 | 2.09 | > 100 | 8.13 | 83 | -12 | -26 | -55 | -57 | 98 | 72 | -24 | 95 | 100 | 96 | -69 | -2
5 | COc1cc(Cl)cc(-c2nn(-c3cccc(NC(=O)Nc4cccc(C(F)(F)F)c4)c3)cc2-c2ccncc2)c1 | -27.3 | 1.34 | 50 | 10.6 | 1.35 | 50.1 | 10.7 | 45 | -12 | -13 | -78 | -100 | 94 | 84 | -43 | 96 | 102 | 58 | -78 | -24
6 | COc1cc(Cl)cc(-c2nn(-c3cccc(NC(=O)c4ccc(N5CCOCC5)c(C(F)(F)F)c4)c3)cc2-c2ccncc2)c1 |  | 3.25 | > 100 | > 100 | 3.24 | > 100 | > 100 | 91 | 54 | 60 | 31 | 3 | 94 | 57 | -10 | 97 | 98 | 93 | 5 | 23
7 | O=C(Nc1cccc(-n2cc(-c3ccncc3)c(-c3cc(O)cc(Cl)c3)n2)c1)Nc1ccc(Cl)c(C(F)(F)F)c1 |  | 2.21 | 50.6 | 60.1 | 2.82 | 60.3 | 6.03 | 55 | -41 | -33 | -95 | -84 | 93 | 91 | -38 | 97 | 102 | 53 | -57 | -43
8 | COc1cc(Cl)cc(-c2nn(-c3cccc(NC(=O)Nc4ccc(Cl)c(C(F)(F)F)c4)c3)cc2-c2ccncc2)c1 |  | 0.493 | 6.46 | 24 | 0.49 | 8.51 | 2.4 | 35 | -16 | -25 | -66 | -100 | 90 | 75 | -88 | 96 | 98 | 58 | -70 | -8
9 | COc1cc(Cl)cc(-c2nn(-c3cccc(NC(=O)Nc4ccc(Cl)c(Cl)c4)c3)cc2-c2ccncc2)c1 |  | 2.51 | > 100 | 31.5 | 2.51 | > 100 | 31.6 | 67 | 8 | 10 | -15 | -68 | 95 | 82 | -70 | 95 | 96 | 87 | -36 | -13
10 | O=C(Nc1cccc(-n2cc(-c3ccncc3)c(-c3cc(O)cc(Cl)c3)n2)c1)c1ccc(N2CCOCC2)c(C(F)(F)F)c1 |  | 0.559 | 84.9 | 11.3 | 0.562 | 85.1 | 11.2 | 30 | 25 | -12 | -20 | -69 | 101 | 58 | -58 | 98 | 98 | 80 | -54 | 14
